Data on 18 compounds can be found in US11453660B2, “Androgen receptor and glucocorticoid receptor modulators” (ONCOSTELLAE, S.L., priority 2017, dated 2022).

Test [1] concerns the target T1, AR-Receptor (Homo sapiens, UniProt P10275).
T1 sequence (P10275 1-920 Q868H): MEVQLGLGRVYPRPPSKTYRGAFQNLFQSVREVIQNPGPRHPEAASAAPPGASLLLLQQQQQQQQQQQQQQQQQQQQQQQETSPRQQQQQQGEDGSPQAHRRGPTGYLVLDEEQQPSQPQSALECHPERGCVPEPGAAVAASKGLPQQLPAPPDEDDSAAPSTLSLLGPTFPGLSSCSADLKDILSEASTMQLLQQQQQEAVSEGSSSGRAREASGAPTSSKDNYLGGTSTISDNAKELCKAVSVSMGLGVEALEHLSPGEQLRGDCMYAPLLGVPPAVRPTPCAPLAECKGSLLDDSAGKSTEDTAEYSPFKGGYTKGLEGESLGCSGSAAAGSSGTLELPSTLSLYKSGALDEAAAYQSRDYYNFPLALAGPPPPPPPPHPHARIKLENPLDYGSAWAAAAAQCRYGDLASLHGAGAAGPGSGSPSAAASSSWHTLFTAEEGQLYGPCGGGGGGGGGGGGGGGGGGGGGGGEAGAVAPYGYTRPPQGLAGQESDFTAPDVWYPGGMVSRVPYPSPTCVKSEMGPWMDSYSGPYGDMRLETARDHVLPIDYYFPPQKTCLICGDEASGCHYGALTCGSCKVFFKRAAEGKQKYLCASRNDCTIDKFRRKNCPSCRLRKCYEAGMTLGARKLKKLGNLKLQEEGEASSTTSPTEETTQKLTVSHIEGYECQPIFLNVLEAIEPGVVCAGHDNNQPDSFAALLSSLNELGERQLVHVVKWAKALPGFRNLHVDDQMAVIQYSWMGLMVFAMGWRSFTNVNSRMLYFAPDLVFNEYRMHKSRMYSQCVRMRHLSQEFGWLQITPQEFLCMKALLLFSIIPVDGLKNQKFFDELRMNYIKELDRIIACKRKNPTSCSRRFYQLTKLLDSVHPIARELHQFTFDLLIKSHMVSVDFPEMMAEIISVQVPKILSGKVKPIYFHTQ
As to the kind of experiment: Functional Assay AR-Receptor (MDA-MB-453 cells, luciferase). It counts as cell-based. The settings on record: antagonist effect in the presence of DHT 1 nM, 24 h, luciferase luminescence, read-out: AR antag KB. On the procedure: Functional Assay AR-Receptor
MDA-MB-453 cells were cultured in DMEM (ATCC, ref 30-2002), 10% FBS, 1% penicillin, 1% streptomycin, 75 μg/ml gentamycin.
The day before performing assay, the cells were trypsinized and seeded in a 384-well plate (Greiner, ref 781098) (8000 cells/well) in 50 μl of complete culture medium. Cells were stores at 37° C. in a 5% CO2 atmosphere overnight.
The medium was replaced by 50 μl complete growth medium with 0.1% FBS. Compounds were dispensed with Echo 550 (Labcyte) and incubated for 24 h at 37° C. in a 5% CO2 atmosphere. Antagonist effect was measured in the presence of DHT 1 nM.
After incubation, assay medium removed and 20 μl of 1× Promega lysis buffer were added to each well. The plate was incubated 15 minutes at RT and quick-frozen to −80° C. and the thaw to room temperature. 50 μl of luciferase substrate (E4550, Promega) were added to each well and luminescence (integration time 1000 msec) was read in an EnSpire multilabel reader (Perkin Elmer).

Test [2] concerns the target T2, Human Glucocorticoid Receptor (Homo sapiens, UniProt P04150).
T2 construct: endogenous in cells; host or cells: cytosol from IM-9 cell line
T2 sequence (P04150 1-777): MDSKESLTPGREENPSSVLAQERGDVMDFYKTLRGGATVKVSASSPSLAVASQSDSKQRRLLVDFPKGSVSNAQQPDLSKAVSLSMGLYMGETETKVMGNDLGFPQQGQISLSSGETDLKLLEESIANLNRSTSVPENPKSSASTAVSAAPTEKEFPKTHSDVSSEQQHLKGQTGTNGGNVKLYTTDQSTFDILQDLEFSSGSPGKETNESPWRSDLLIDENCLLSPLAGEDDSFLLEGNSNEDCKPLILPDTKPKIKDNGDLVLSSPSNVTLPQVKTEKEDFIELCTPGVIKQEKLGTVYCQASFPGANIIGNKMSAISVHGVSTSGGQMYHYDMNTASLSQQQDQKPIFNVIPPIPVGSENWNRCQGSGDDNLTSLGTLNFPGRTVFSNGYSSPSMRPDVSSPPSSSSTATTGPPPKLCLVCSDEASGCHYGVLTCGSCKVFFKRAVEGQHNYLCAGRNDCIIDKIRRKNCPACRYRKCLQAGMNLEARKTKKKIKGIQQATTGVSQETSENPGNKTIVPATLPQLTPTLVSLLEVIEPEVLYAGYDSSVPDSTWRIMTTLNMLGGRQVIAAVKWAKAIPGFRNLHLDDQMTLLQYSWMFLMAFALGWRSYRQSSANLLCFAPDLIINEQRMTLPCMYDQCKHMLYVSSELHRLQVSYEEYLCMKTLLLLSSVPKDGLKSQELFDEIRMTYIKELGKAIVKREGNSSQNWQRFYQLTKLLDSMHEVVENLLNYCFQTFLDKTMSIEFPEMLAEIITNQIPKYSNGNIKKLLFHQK
As to the kind of experiment: Competition Binding in IM-9 Human Glucocorticoid Receptor (GR IM-9). The settings on record: cytosol from IM-9 cell line, 1.5 nM [3H]-Dexamethasone, 4° C. for 6 hours. The method in brief:
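Radioligand competition using 100 μg IM-9 cell cytosol and 1.5 nM [3H]-dexamethasone, incubated 6 h at 4° C in TES/molybdate buffer, pH 7.4. Filtration on PEI-treated GF/B filters, scintillation counting; nonspecific binding defined with 10 μM triamcinolone.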

One may read the Kb as the equilibrium dissociation constant of an antagonist, usually derived from a functional assay. A word on the IC50: it is the point on the concentration scale where inhibition reaches its midpoint. Consider `CC(=O)C1=C(C)NC(C)=C(C(=O)OCc2cccnc2)C1c1csc2ncccc12` (centres unmarked) [Example C61, Pyridin-3-ylmethyl 5-acetyl-2,6-dimethyl-4-(thieno[2,3-b]pyridin-3-yl)-1,4-dihydropyridine-3-carboxylate], for which the Kb in test [1] is 0.1 to 1 µM. In test [2], this compound returned an IC50 of no less than 1 µM. Consider `CC(=O)C1=C(C)NC(C)=C(C(=O)OCc2ccncc2)C1c1csc2ccc(Cl)cc12` (centres unmarked) [Example C62, Pyridin-4-ylmethyl 5-acetyl-4-(5-chlorobenzo[b]thiophen-3-yl)-2,6-dimethyl-1,4-dihydropyridine-3-carboxylate], for which the Kb in test [1] lay in the range of 0.1 to 1 µM. With `CC(=O)C1=C(C)NC(C)=C(C(=O)OCc2ccncc2)C1c1csc2ncccc12` (centres unmarked) [Example C64, Pyridin-4-ylmethyl 5-acetyl-2,6-dimethyl-4-(thieno[2,3-b]pyridin-3-yl)-1,4dihydropyridine-3-carboxylate], in test [1], the antagonist dissociation constant (Kb) fell in the range of 0.1 to 1 µM. For the same compound, the 50% inhibitory concentration (IC50) in test [2] is no less than 1 µM. The matching figures for `CC(=O)C1=C(C)NC(C)=C(C(=O)OCc2ccc(Cl)nc2)C1c1csc2ncccc12` (centres unmarked) [Example C74, (6-chloropyridin-3-yl)methyl 5-acetyl-2,6-dimethyl-4-(thieno[2,3-b]pyridin-3-yl)-1,4-dihydropyridine-3-carboxylate]: no less than 1 µM and 0.1 to 1 µM. With `CC(=O)C1=C(C)NC(C)=C(C(=O)OCc2cccc(N3CCOCC3)c2)C1c1csc2ncccc12` (centres unmarked) [Example C75, 3-morpholinobenzyl 5-acetyl-2,6-dimethyl-4-(thieno[2,3-b]pyridin-3-yl)-1,4-dihydropyridine-3-carboxylate], the Kb in test [1] is no less than 1 µM. In test [2], this compound returned an IC50 of 0.1 to 1 µM. For `CC(=O)C1=C(C)NC(C)=C(C(=O)OC2CCC(F)(F)CC2)C1c1csc2ncccc12` (centres unmarked) [Example C79, 4,4-difluorocyclohexyl 5-acetyl-2,6-dimethyl-4-(thieno[2,3-b]pyridin-3-yl)-1,4-dihydropyridine-3-carboxylate], the Kb in test [1] was no less than 1 µM. Besides, in test [2], the IC50 is less than 0.1 µM. Regarding `CC(=O)C1=C(C)NC(C)=C(C(=O)N(C)Cc2ccccc2)C1c1csc2ncccc12` (centres unmarked) [Example C80, 5-Acetyl-N-benzyl-N,2,6-trimethyl-4-(thieno[2,3-b]pyridin-3-yl)-1,4-dihydropyridine-3-carboxamide], the Kb in test [1] was no less than 1 µM. This compound came in with a half-inhibitory concentration (IC50) in test [2] of no less than 1 µM. For the compound `COC(=O)C1=C(C2CC2)NC(C2CC2)=C(C#N)C1c1csc2c(C#N)cccc12` (centres unmarked) [Example C107, Methyl 5-cyano-4-(7-cyanobenzo[b]thiophen-3-yl)-2,6-dicyclopropyl-1,4-dihydropyridine-3-carboxylate], in test [1], the Kb was no less than 1 µM. Further, in test [2], the 50% inhibitory concentration (IC50) is less than 0.1 µM.

For the compound `CC(=O)C1=C(C)NC(C)=C(C(=O)OCc2cccc(CN3CCN(C)CC3)c2)C1c1csc2c(Br)cccc12` (centres unmarked) [Example C108, 3-((4-methylpiperazin-1-yl)methyl)benzyl 5-acetyl-4-(7-bromobenzo[b]thiophen-3-yl)-2,6-dimethyl-1,4-dihydropyridine-3-carboxylate], the Kb in test [1] is no less than 1 µM. Moreover, the 50% inhibitory concentration (IC50) in test [2] was less than 0.1 µM. As to `CC(=O)C1=C(C)NC(C2CC2)=C(C(=O)OCC2CC2)C1c1csc2cc(C#N)ccc12` (centres unmarked) [Example C122, Cyclopropylmethyl 5-acetyl-4-(6-cyanobenzo[b]thiophen-3-yl)-2-cyclopropyl-6-methyl-1,4-dihydropyridine-3-carboxylate], the antagonist dissociation constant (Kb) in test [1] was less than 0.1 µM. Besides, the half-inhibitory concentration (IC50) in test [2] lay within 0.1 to 1 µM. The matching figures for `CC(=O)C1=C(C)NC(N)=C(C(=O)OC2CCCC2)C1c1csc2c(Br)cccc12` (centres unmarked) [Example D6, Cyclopentyl 5-acetyl-2-amino-4-(7-bromobenzo[b]thiophen-3-yl)-6-methyl-1,4-dihydropyridine-3-carboxylate]: no less than 1 µM and 0.1 to 1 µM. `COC(=O)C1=C(C)NC(N)=C(C(=O)OC)C1c1csc2c(C#N)cccc12` (centres unmarked) [Example D7, Dimethyl 2-amino-4-(7-cyanobenzo[b]thiophen-3-yl)-6-methyl-1,4-dihydropyridine-3,5-dicarboxylate]: in test [1], the Kb was no less than 1 µM. In test [2], this compound came in with an IC50 of less than 0.1 µM. Take `CC(=O)C1=C(C)NC(C2CC2)=C(C(=O)OCc2ccncc2)C1c1csc2ccc(Cl)cc12` (centres unmarked) [Example J34, Pyridin-4-ylmethyl 5-acetyl-4-(5-chlorobenzo[b]thiophen-3-yl)-2-cyclopropyl-6-methyl-1,4-dihydropyridine-3-carboxylate]: the Kb in test [1] was 0.1 to 1 µM. With `CC(=O)C1=C(C)NC(C2CC2)=C(C(=O)OCc2ccc(C#N)cc2)C1c1csc2ncccc12` (centres unmarked) [Example J43, 4-cyanobenzyl 5-acetyl-2-cyclopropyl-6-methyl-4-(thieno[2,3-b]pyridin-3-yl)-1,4-dihydropyridine-3-carboxylate], the Kb in test [1] lay in the range of 0.1 to 1 µM. In test [2], this compound gave an IC50 of less than 0.1 µM. In the case of `CC(=O)C1=C(C)NC(C)=C(C(=O)OCc2ccccc2-c2ccncc2)C1c1csc2ncccc12` (centres unmarked) [Example L5, 2-(pyridin-4-yl)benzyl 5-acetyl-2,6-dimethyl-4-(thieno[2,3-b]pyridin-3-yl)-1,4-dihydropyridine-3-carboxylate], the Kb in test [1] is no less than 1 µM. For the same compound, in test [2], the IC50 was less than 0.1 µM. Consider `CC(=O)C1=C(C)NC(C)=C(C(=O)OCc2cncc(-c3ccncc3)c2)C1c1csc2ncccc12` (centres unmarked) [Example L7, [3,4′-bipyridin]-5-ylmethyl 5-acetyl-2,6-dimethyl-4-(thieno[2,3-b]pyridin-3-yl)-1,4-dihydropyridine-3-carboxylate], for which the antagonist equilibrium constant (Kb) in test [1] is no less than 1 µM. Besides, the IC50 in test [2] lay in the range of 0.1 to 1 µM. On to `CC(=O)C1=C(C)NC(C)=C(C(=O)OCc2ccc(-c3ccncc3)nc2)C1c1csc2ncccc12` (centres unmarked) [Example L9, [2,4′-bipyridin]-5-ylmethyl 5-acetyl-2,6-dimethyl-4-(thieno[2,3-b]pyridin-3-yl)-1,4-dihydropyridine-3-carboxylate], for which, in test [1], the Kb was 0.1 to 1 µM. “Benzyl 5-acetyl-4-(7-(methoxycarbonyl)benzo[b]thiophen-3-yl)-2,6-dimethyl-1,4-dihydropyridine-3-carboxylate [Example J38]”: the antagonist dissociation constant (Kb) in test [1] lay within 0.1 to 1 µM.
